ChEMBL document CHEMBL1201862, “PubChem BioAssay data set” (2004)
Calls of active or inactive are those of the source.

What was measured:
[1] = biological target: Transitional endoplasmic reticulum ATPase (Homo sapiens, UniProt P55072, C522A); experiment: C522A mutant p97 ATPase inhibitors, dose response, counter-screen for p97 inhibitor project, biochemical, luminescence (AID 1544)
[2] = biological target: Transitional endoplasmic reticulum ATPase (Homo sapiens, UniProt P55072); experiment: p97 ATPase inhibitors, dose response, biochemical (AID 1534)
[3] = biological target: Induced myeloid leukemia cell differentiation protein Mcl-1 (Homo sapiens, UniProt Q07820); assay type: functional
[4] = biological target: Glucose-6-phosphate 1-dehydrogenase (Homo sapiens, UniProt P11413); experiment: human G6PD enzyme inhibitors, dose response, selectivity assay for P. falciparum G6PD inhibitor project, biochemical, fluorescence (AID 504792); assay type: functional
[5] = biological target: T1, Cystic fibrosis transmembrane conductance regulator/Golgi-associated PDZ and coiled-coil motif-containing protein (Homo sapiens, UniProt P13569+Q9HD26); experiment: CAL PDZ peptide-binding inhibitors, dose response, biochemical, fluorescence polarization, Cerulean-tagged CAL PDZ, cherry-picks (AID 504773)
Hexokinase HKDC1 = Hexokinase HKDC1 (Homo sapiens, UniProt Q2TB90); experiment: HKDC1 hexokinase inhibitors, dose response, biochemical, W721R variant (AID 504729); assay type: functional
Vero = Vero cell cytotoxicity, cytotoxicity control for flavivirus capping enzyme inhibitors (AID 588742); assay type: functional; conditions: Chlorocebus sabaeus
Genome polyprotein = Genome polyprotein (dengue virus type 2, UniProt P29990); experiment: Dengue-2 NS5 methyltransferase inhibitors, primary screen, biochemical, confirmation dose response (AID 588689); assay type: functional
[6] = biological target: T2, Polyadenylate-binding protein 1 (Homo sapiens, UniProt P11940); experiment: PABP1 MLLE–PAM2 interaction inhibitors, dose response, miRNA deadenylation inhibitor project, biochemical, fluorescence polarization, Cy5-PAM2 peptide, secondary (AID 602260); assay type: functional; conditions: read-out: IC50_Mean
[7] = biological target: T2, Polyadenylate-binding protein 1; experiment: PABP1 MLLE–PAM2 binding inhibitor potency, dose response, biochemical, fluorescence polarization, FITC-PAM2 peptide (AID 602259); assay type: functional; conditions: read-out: IC50_Mean
[8] = CAL PDZ domain peptide-binding inhibitors, dose response, biochemical, fluorescence polarization, untagged CAL PDZ, dry powder (AID 602255); assay type: functional
[9] = biological target: T1, Cystic fibrosis transmembrane conductance regulator/Golgi-associated PDZ and coiled-coil motif-containing protein; experiment: CAL PDZ domain peptide-binding inhibitors, dose response, biochemical, fluorescence polarization, Cer-tagged CAL PDZ, dry powder (AID 602253); assay type: functional
[10] = BHK-21 cell cytotoxicity, cytotoxicity control for flavivirus guanylyltransferase probe project, secondary screen (AID 624078); assay type: functional
[11] = A549 cell cytotoxicity, dose response, cytotoxicity control, plate reader, cherry-pick, antagonist series (AID 743412); assay type: functional, cell-based
[12] = HepG2 cell cytotoxicity, dose response, cytotoxicity control, plate reader, cherry-pick, antagonist series (AID 743416); assay type: functional, cell-based
[13] = biological target: T3, Tyrosyl-DNA phosphodiesterase 2 (Homo sapiens, UniProt O95551); experiment: human TDP2 enzyme inhibitors, dose response, biochemical, epi absorbance, IC50 (AID 743297)
T3 sequence (O95551 whole entry): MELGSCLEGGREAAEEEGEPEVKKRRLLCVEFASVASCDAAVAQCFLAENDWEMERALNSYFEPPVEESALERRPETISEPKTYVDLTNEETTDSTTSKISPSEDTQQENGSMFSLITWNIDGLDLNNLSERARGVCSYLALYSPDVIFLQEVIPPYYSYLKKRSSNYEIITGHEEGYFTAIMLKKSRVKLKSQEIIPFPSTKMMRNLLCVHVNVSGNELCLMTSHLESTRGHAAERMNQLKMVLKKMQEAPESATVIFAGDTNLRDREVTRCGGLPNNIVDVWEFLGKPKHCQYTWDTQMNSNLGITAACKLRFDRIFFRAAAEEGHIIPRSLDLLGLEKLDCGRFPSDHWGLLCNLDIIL

[14] = MC4R antagonists, dose response, counter-screen for LGR2 antagonist project, cell-based, plate reader, cherry pick (AID 743444); assay type: functional;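 note: transfected HEK 293 cells stimulated with alpha-MSH peptide; potency of inhibitors of the alpha-MSH evoked signal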
[15] = HEK293 cell cytotoxicity, dose response, cytotoxicity control, plate reader, cherry-picked samples (AID 743446); assay type: functional, cell-based
[16] = biological target: Serine/threonine-protein kinase TAO1 (Homo sapiens, UniProt Q7L7X3); assay type: functional
[17] = biological target: Cyclin-dependent kinase 5 (Homo sapiens, UniProt Q00535); assay type: functional;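 note: CDK5 measured as one member of a kinase profiling panel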
[18] = biological target: Dual specificity protein kinase CLK4 (Homo sapiens, UniProt Q9HAZ1); assay type: functional
Melanocortin receptor 4 = Melanocortin receptor 4 (Homo sapiens, UniProt P32245); experiment: MC4R antagonist potency on cAMP, dose response, cell-based, TR-FRET, biased antagonists (AID 602298); assay type: functional;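 note: antagonist potency against agonist-stimulated cAMP production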
[19] = nonselective inhibitors of cellular cAMP signaling, dose response, counter-screen for MC4R biased antagonist project, cell-based, TR-FRET cAMP detection (AID 602305); assay type: functional;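 note: U2OS cells stimulated with forskolin near its EC80 as the cAMP inducer; potency is for inhibition of forskolin-stimulated cAMP signaling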
[20] = biological target: Ribosomal protein S6 kinase alpha-3 (Homo sapiens, UniProt P51812); assay type: functional;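 note: measured within a kinome-wide profiling panel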
[21] = biological target: Dual specificity protein kinase CLK2 (Homo sapiens, UniProt P49760); assay type: functional
[22] = biological target: Dual specificity mitogen-activated protein kinase kinase 1 (Homo sapiens, UniProt Q02750); experiment: Navigating the Kinome. Panel member name: MAP2K1; assay type: functional
[23] = biological target: Serine/threonine-protein kinase PLK3 (Homo sapiens, UniProt Q9H4B4); assay type: functional
[24] = biological target: Serine/threonine-protein kinase TBK1 (Homo sapiens, UniProt Q9UHD2); experiment: Navigating the Kinome. Panel member name: TBK1; assay type: functional
[25] = biological target: RAC-gamma serine/threonine-protein kinase (Homo sapiens, UniProt Q9Y243); assay type: functional
[26] = biological target: 5'-AMP-activated protein kinase catalytic subunit alpha-1 (Homo sapiens, UniProt Q13131); assay type: functional
[27] = biological target: Serine/threonine-protein kinase D3 (Homo sapiens, UniProt O94806); assay type: functional;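 note: determined within a kinase panel screen, with PRKCN as the panel member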
[28] = biological target: Serine/threonine-protein kinase pim-1 (Homo sapiens, UniProt P11309); assay type: functional
[29] = biological target: Serine/threonine-protein kinase PAK 4 (Homo sapiens, UniProt O96013); assay type: functional;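 note: value obtained within a kinome profiling panel in which PAK4 was one of the panel members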
[30] = biological target: Fibroblast growth factor receptor 1 (Homo sapiens, UniProt P11362); assay type: functional
[31] = biological target: Casein kinase I isoform alpha (Homo sapiens, UniProt P48729); assay type: functional
[32] = biological target: Mitogen-activated protein kinase 9 (Homo sapiens, UniProt P45984); assay type: functional;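 note: value from a kinome panel profiling assay, MAPK9 panel entry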
LIM domain kinase 1 = LIM domain kinase 1 (Homo sapiens, UniProt P53667); experiment: Navigating the Kinome. Panel member name: LIMK1; assay type: functional
[33] = biological target: Serine/threonine-protein kinase pim-3 (Homo sapiens, UniProt Q86V86); assay type: functional;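 note: value obtained as one member of a broad kinase panel profiling effort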
[34] = biological target: Glycogen synthase kinase-3 alpha (Homo sapiens, UniProt P49840); assay type: functional;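 note: GSK3A result taken from a broad kinome-wide kinase panel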
Activated CDC42 kinase 1 = Activated CDC42 kinase 1 (Homo sapiens, UniProt Q07912); experiment: Navigating the Kinome. Panel member name: ACK1; assay type: functional
[35] = biological target: Serine/threonine-protein kinase Chk1 (Homo sapiens, UniProt O14757); assay type: functional;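 note: measured as one member of a kinome-wide kinase profiling panel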
[36] = biological target: G protein-coupled receptor kinase 5 (Homo sapiens, UniProt P34947); experiment: Navigating the Kinome. Panel member name: GPRK5; assay type: functional
[37] = biological target: Dual specificity tyrosine-phosphorylation-regulated kinase 1B (Homo sapiens, UniProt Q9Y463); experiment: Navigating the Kinome. Panel member name: DYRK1B; assay type: functional
[38] = biological target: cAMP-dependent protein kinase catalytic subunit PRKX (Homo sapiens, UniProt P51817); assay type: functional
[39] = biological target: Leucine-rich repeat serine/threonine-protein kinase 2 (Homo sapiens, UniProt Q5S007); assay type: functional;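 note: value from a broad kinome-wide panel profiling study in which LRRK2 was one of the kinases tested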
Aurora kinase B = Aurora kinase B (Homo sapiens, UniProt Q96GD4); assay type: functional
[40] = biological target: RAC-alpha serine/threonine-protein kinase (Homo sapiens, UniProt P31749); assay type: functional;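 note: AKT1 affinity measured as one member of a kinome-wide kinase profiling panel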
[41] = biological target: Rho-associated protein kinase 1 (Homo sapiens, UniProt Q13464); assay type: functional;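 note: measured within a broad kinome-wide panel profiling many kinases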
[42] = biological target: Serine/threonine-protein kinase Nek2 (Homo sapiens, UniProt P51955); assay type: functional
[43] = biological target: Cyclin-dependent kinase 8 (Homo sapiens, UniProt P49336); experiment: Navigating the Kinome. Panel member name: CDK8; assay type: functional
[44] = biological target: Cyclin-dependent kinase 7 (Homo sapiens, UniProt P50613); assay type: functional;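 note: value comes from a kinome-wide kinase profiling panel in which CDK7 is one member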
[45] = biological target: Serine/threonine-protein kinase PLK1 (Homo sapiens, UniProt P53350); assay type: functional;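 note: PLK1 measured as one member of a kinome-wide profiling panel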
[46] = biological target: Glycogen synthase kinase-3 beta (Homo sapiens, UniProt P49841); assay type: functional;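 note: value comes from a broad kinome profiling panel, with GSK3B as the panel member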
[47] = biological target: BDNF/NT-3 growth factors receptor (Homo sapiens, UniProt Q16620); assay type: functional;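 note: NTRK2 measured as one member of a broad kinome-wide kinase profiling panel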
[48] = biological target: Macrophage-stimulating protein receptor (Homo sapiens, UniProt Q04912); experiment: Navigating the Kinome. Panel member name: MST1R; assay type: functional
[49] = biological target: Dual specificity mitogen-activated protein kinase kinase 2 (Homo sapiens, UniProt P36507); experiment: Navigating the Kinome. Panel member name: MAP2K2; assay type: functional
[50] = biological target: Dual specificity tyrosine-phosphorylation-regulated kinase 1A (Homo sapiens, UniProt Q13627); assay type: functional;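 note: measured against DYRK1A as one member of a broad kinome profiling panel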
[51] = biological target: Inhibitor of nuclear factor kappa-B kinase subunit epsilon (Homo sapiens, UniProt Q14164); experiment: Navigating the Kinome. Panel member name: IKBKE; assay type: functional
[52] = biological target: Calcium/calmodulin-dependent protein kinase type II subunit alpha (Homo sapiens, UniProt Q9UQM7); experiment: Navigating the Kinome. Panel member name: CAMK2A; assay type: functional
[53] = biological target: Mitogen-activated protein kinase 14 (Homo sapiens, UniProt Q16539); assay type: functional;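 note: part of a kinome-wide panel, MAPK14 entry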
[54] = biological target: High affinity nerve growth factor receptor (Homo sapiens, UniProt P04629); assay type: functional;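 note: NTRK1 tested as one member of a kinome-wide profiling panel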
[55] = biological target: Hepatocyte growth factor receptor (Homo sapiens, UniProt P08581); assay type: functional;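 note: kinase panel profiling across the kinome, with MET as the panel member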
[56] = biological target: cAMP-dependent protein kinase catalytic subunit alpha (Homo sapiens, UniProt P17612); assay type: functional
Aurora kinase A = Aurora kinase A (Homo sapiens, UniProt O14965); assay type: functional;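 note: value from the Navigating the Kinome kinase panel profiling, panel entry STK6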
[57] = biological target: Vascular endothelial growth factor receptor 2 (Homo sapiens, UniProt P35968); assay type: functional

Aurora kinase B, sequence (Q96GD4 whole entry): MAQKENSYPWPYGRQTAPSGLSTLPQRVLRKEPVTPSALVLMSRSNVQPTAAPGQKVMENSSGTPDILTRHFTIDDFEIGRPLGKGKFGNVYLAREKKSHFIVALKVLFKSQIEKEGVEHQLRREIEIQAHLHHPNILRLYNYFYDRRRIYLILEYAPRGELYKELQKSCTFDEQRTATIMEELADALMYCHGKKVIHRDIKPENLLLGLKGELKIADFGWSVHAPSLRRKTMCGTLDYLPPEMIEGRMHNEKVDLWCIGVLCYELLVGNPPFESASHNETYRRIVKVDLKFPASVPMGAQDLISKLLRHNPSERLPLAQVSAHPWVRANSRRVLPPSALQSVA
Fibroblast growth factor receptor 1, sequence (P11362 whole entry, canonical isoform): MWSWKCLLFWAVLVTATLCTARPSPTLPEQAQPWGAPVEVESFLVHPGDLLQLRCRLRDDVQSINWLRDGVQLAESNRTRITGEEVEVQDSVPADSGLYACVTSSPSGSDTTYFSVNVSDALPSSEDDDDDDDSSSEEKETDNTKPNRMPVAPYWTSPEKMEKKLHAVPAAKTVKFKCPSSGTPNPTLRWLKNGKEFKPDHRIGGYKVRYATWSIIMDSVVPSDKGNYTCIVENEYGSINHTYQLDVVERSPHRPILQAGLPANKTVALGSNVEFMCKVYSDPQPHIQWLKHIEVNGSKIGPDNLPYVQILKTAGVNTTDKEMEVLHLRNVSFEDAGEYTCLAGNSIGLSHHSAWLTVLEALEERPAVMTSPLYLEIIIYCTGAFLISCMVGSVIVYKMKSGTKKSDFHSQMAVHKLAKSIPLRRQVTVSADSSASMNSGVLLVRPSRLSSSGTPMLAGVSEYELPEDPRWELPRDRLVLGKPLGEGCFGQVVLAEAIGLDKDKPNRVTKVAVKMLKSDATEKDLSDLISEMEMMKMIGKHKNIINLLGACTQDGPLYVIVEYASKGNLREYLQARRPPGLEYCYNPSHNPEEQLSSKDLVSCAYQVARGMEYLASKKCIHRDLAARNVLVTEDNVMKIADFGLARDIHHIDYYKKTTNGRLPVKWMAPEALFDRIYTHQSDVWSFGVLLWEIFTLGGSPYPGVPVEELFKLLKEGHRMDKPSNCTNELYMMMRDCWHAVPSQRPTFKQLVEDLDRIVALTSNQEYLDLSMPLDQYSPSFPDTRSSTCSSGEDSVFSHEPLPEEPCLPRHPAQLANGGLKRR
T1 sequence (P13569 whole entry, other chains not shown): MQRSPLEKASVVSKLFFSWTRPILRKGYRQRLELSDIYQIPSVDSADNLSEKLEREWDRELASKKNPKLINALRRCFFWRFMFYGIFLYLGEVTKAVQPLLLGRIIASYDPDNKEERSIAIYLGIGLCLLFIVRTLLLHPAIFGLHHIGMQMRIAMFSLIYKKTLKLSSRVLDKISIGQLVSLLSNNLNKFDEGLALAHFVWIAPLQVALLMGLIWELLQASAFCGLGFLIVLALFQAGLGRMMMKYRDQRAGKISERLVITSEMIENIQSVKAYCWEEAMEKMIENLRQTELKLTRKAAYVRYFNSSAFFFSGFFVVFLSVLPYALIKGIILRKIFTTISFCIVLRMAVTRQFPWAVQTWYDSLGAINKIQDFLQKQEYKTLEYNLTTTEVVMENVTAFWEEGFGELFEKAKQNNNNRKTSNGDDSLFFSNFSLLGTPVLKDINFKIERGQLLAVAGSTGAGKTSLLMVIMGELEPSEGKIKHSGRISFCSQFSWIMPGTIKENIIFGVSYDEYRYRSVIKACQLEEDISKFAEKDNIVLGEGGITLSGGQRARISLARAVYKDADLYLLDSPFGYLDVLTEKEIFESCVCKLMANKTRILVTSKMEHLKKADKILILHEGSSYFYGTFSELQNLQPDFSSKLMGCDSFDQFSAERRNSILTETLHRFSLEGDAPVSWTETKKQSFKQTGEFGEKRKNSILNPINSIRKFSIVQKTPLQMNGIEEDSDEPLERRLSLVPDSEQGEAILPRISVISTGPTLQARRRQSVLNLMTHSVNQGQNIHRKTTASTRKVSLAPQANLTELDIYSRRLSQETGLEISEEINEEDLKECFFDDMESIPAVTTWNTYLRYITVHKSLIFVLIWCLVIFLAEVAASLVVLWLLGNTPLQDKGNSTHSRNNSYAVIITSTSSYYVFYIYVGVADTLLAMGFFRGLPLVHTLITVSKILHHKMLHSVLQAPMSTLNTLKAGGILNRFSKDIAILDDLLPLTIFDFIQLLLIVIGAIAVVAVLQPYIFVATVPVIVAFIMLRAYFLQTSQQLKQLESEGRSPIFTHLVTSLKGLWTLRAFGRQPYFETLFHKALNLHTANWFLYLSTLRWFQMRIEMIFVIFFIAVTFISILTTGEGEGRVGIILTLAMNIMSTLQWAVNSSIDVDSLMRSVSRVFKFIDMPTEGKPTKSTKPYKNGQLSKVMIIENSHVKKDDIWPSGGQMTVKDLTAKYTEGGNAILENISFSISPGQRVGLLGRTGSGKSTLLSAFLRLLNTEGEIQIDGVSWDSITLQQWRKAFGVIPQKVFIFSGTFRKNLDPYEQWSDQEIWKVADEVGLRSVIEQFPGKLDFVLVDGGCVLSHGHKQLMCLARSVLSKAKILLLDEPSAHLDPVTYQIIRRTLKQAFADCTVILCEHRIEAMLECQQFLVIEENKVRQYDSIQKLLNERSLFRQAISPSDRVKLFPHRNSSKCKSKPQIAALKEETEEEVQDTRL
Glycogen synthase kinase-3 beta, sequence (P49841 whole entry): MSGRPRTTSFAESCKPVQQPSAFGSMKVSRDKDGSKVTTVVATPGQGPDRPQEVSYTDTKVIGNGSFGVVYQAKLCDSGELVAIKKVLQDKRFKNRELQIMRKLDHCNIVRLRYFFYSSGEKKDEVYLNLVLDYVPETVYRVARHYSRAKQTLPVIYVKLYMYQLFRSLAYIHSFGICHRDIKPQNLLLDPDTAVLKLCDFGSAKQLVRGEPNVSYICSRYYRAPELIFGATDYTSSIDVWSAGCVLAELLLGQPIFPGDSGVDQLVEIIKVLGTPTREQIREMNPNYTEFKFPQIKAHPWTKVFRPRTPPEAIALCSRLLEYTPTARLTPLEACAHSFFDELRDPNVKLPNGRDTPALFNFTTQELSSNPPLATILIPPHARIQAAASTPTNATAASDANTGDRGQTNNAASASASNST
Dual specificity protein kinase CLK4, sequence (Q9HAZ1 whole entry): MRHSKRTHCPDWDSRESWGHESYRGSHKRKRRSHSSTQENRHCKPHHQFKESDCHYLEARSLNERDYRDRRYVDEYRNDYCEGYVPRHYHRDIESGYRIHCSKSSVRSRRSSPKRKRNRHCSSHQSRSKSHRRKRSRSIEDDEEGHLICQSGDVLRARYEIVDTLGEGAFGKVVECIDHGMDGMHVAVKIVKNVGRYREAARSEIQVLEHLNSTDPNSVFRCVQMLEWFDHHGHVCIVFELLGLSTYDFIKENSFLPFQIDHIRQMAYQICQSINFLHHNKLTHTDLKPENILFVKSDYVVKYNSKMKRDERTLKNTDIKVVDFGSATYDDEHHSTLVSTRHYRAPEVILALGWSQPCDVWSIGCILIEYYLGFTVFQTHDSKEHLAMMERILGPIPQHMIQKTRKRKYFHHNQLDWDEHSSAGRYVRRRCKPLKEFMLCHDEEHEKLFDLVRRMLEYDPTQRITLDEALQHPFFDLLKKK
T2 sequence (P11940 whole entry): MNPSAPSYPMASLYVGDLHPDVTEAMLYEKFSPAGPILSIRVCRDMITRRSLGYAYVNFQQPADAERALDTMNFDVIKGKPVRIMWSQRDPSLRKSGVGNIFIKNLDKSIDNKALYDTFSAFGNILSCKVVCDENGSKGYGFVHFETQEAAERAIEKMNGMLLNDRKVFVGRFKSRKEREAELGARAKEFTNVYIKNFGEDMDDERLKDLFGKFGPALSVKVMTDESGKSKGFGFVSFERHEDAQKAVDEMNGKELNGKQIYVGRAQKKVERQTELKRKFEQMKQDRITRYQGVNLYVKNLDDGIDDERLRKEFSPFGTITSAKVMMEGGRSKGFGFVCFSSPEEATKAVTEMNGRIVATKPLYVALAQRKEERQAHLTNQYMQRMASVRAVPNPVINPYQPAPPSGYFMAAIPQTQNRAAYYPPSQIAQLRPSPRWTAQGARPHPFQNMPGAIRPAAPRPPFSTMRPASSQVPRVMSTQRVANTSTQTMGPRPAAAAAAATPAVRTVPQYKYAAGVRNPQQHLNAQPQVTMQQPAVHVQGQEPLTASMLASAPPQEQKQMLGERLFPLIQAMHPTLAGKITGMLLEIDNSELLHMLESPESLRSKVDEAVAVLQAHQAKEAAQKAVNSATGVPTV
Cyclin-dependent kinase 5, sequence (Q00535 whole entry): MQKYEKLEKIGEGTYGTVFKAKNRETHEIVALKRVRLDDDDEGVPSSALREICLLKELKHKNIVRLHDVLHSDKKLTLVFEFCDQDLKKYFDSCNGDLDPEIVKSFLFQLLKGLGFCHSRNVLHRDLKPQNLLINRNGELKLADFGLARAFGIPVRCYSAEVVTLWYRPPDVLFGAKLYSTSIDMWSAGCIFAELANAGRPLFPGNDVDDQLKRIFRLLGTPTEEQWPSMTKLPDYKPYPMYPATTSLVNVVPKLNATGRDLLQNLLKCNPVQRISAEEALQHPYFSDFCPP
RAC-gamma serine/threonine-protein kinase, sequence (Q9Y243 whole entry): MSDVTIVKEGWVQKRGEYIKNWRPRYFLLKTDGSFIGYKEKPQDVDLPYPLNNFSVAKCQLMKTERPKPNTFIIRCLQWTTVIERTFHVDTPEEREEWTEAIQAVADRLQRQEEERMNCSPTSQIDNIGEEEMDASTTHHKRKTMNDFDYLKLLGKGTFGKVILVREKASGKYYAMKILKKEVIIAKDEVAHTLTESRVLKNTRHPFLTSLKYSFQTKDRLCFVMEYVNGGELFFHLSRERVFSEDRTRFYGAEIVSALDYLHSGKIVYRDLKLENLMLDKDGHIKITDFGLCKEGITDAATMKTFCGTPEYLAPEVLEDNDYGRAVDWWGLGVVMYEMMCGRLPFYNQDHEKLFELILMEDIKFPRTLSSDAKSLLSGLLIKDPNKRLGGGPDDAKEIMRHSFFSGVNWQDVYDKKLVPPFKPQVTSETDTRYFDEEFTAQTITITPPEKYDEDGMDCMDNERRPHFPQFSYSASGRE

SMILES: O=C(O)CSc1cc(NS(=O)(=O)c2cccc([N+](=O)[O-])c2)c2ccccc2c1O
- IC50 [1]: 17.4 µM (not active)
- IC50 [2]: > 50 µM (not active)
- IC50 [3]: 13.6 µM (active)
- IC50 [4]: 12.2 µM (active)
- AC50 [5]: 21.7 µM (active)
- IC50 (Hexokinase HKDC1): 5.62 µM (active)
- CC50 (Vero): 26.5 µM (active)
- IC50 (Genome polyprotein): 5.4 µM (active)
- IC50 [6]: > 66 µM (inactive)
- IC50 [7]: 35.5 µM (inactive)
- AC50 [8]: 52 µM (active)
- AC50 [9]: 44.7 µM (active)
- CC50 [10]: 7.45 µM (active)
- AC50 [11]: 17.6 µM (active)
- AC50 [12]: 12.1 µM (active)
- IC50 [13]: 12.9 µM (inactive)
- AC50 [14]: 42.7 µM (active)
- AC50 [15]: 21.2 µM (active)

SMILES: Nc1cc(Nc2ccc(O)c(CNC(=O)C(F)(F)F)c2)ncn1
- Ki [16]: 1.58 µM (active)
- Ki [17]: 0.794 µM (active)
- Ki [18]: 1.26 µM (active)

SMILES: O=C(CNC(=O)C(c1ccccc1)c1ccccc1)OCc1ccccc1
- IC50 (Melanocortin receptor 4): > 64.6 µM (inactive)
- IC50 [19]: > 64.6 µM (inactive)

SMILES: O=C1NCc2c(Br)cccc21
- Ki [20]: > 79.4 µM (inactive)
- Ki [21]: > 79.4 µM (inactive)
- Ki [22]: > 63.1 µM (inactive)
- Ki [23]: > 79.4 µM (inactive)
- Ki [24]: > 63.1 µM (inactive)
- Ki [25]: > 100 µM (inactive)
- Ki [26]: > 63.1 µM (inactive)
- Ki [27]: > 79.4 µM (inactive)
- Ki [28]: 50.1 µM (active)
- Ki [29]: > 100 µM (inactive)
- Ki [30]: > 63.1 µM (inactive)
- Ki [31]: 63.1 µM (active)
- Ki [32]: > 79.4 µM (inactive)
- Ki (LIM domain kinase 1): > 63.1 µM (inactive)
- Ki [33]: > 79.4 µM (inactive)
- Ki [34]: > 79.4 µM (inactive)
- Ki (Activated CDC42 kinase 1): > 79.4 µM (inactive)
- Ki [35]: > 79.4 µM (inactive)
- Ki [36]: > 79.4 µM (inactive)
- Ki [17]: 63.1 µM (active)
- Ki [37]: 31.6 µM (active)
- Ki [38]: > 63.1 µM (inactive)
- Ki [39]: 31.6 µM (active)
- Ki (Aurora kinase B): > 79.4 µM (inactive)
- Ki [40]: > 79.4 µM (inactive)
- Ki [41]: 20 µM (active)
- Ki [42]: > 63.1 µM (inactive)
- Ki [43]: > 79.4 µM (inactive)
- Ki [44]: > 79.4 µM (inactive)
- Ki [45]: > 79.4 µM (inactive)
- Ki [46]: > 79.4 µM (inactive)
- Ki [47]: > 79.4 µM (inactive)
- Ki [18]: 6.31 µM (active)
- Ki [48]: > 79.4 µM (inactive)
- Ki [49]: > 79.4 µM (inactive)
- Ki [50]: 20 µM (active)
- Ki [51]: > 63.1 µM (inactive)
- Ki [52]: > 79.4 µM (inactive)
- Ki [53]: > 79.4 µM (inactive)

SMILES: O=C1NCc2ccc(-c3ccc(Cl)cc3)cc21
- Ki [30]: 63.1 µM (active)
- Ki [54]: 63.1 µM (active)
- Ki [55]: 63.1 µM (active)
- Ki [46]: 63.1 µM (active)
- Ki [56]: 50.1 µM (active)

SMILES: Nc1nc(SCC(=O)Nc2ncccn2)nc2nc[nH]c12
- Ki (Aurora kinase A): > 2 µM (inactive)
- Ki [57]: 3.98 µM (active)
- Ki (Aurora kinase B): 0.0794 µM (active)
